Experimental data: patent US20230056994A1, “NECROPTOSIS MODULATORS, SCREENING METHODS AND PHARMACEUTICAL COMPOSITIONS” (NEURALIS SA, priority 2019, published 2023)
Entries after “also recorded” stand apart in the source; their conditions may differ.

Legend:
[1] = tested on: phosphorylation state of MLKL in HT29 cells; experiment: Western blot of phospho-MLKL (Ser358) in HT29 cells, necroptosis induced by TNF-alpha and z-VAD-fmk; format: cell-based; settings: then TNF a 10 ng/ml 20 hrs, z-VAD-fmk 10 μM, One-Way ANOVA
Experimental: (§1) MCF7 and HT29 cells were cultured in DMEM along with 10% FBS, 1% Penicillin-Streptomycin and 1% Glutamine. The cells were pre-treated with 0.1% DMSO or z-VAD-fmk (10 μM) to induce necroptosis (positive control). In order to evaluate the effect of candidate agents on the induced necroptosis, Necrostatin 1 (Nec-1 (10 μM)) or Estetrol (E4 (10^-7 M) was added to the cells for 1 hr and was further subjected to Tumor Necrosis Factor (TNF) a (10 ng/ml) treatment for 20 hrs. The cells were then washed, followed by isolation and quantification of the total protein. 20 μg of protein from each treatment group was used for SDS-PAGE separation (10% […] gel) and was then transferred to PVDF membrane via a transfer apparatus. Post transfer, the membranes were blocked with 5% milk and further washed with the wash buffer. The membranes were further incubated with anti-Phospho-MLKL (Ser358) Polyclonal Antibody; Cat No: PA5-105678 (Thermofisher Scientific) at a dilution of 1/1000. The membranes were then incubated with secondary antibody (anti-Rabbit IgG, HRP-linked antibody, Cell signaling, Cat No: 7074S) at a dilution of 1/1000 and visualized using Western Blot substrate (Western Lightning Plus-ECL, Perkin Elmer, NEL104001EA) as per manufacturer's protocols. The results are shown in FIGS. 6 and 7, respectively for MCF7 and HT29 cells.

[2] = tested on: phosphorylation state of MLKL in MCF7 cells; experiment: Western blot of phospho-MLKL (Ser358) in MCF7 cells, necroptosis induced by TNF-alpha and z-VAD-fmk; format: cell-based; settings: then TNF a 10 ng/ml 20 hrs, z-VAD-fmk 10 μM, One-Way ANOVA
Experimental: as §1

[3] = E4 10^-7 M for 1 hr, listed as E4
[4] = Nec-1 10 μM for 1 hr, listed as Nec 1
[5] = Nec-1 10 μM for 1 hr, listed as Necrostatin 1

Row | Structure (SMILES) | reduction of MLKL phosphorylation versus TNF-alpha + z-VAD-fmk induced cells ([1]; E4 10^-7 M for 1 hr) | reduction of MLKL phosphorylation versus TNF-alpha + z-VAD-fmk induced cells [1, 3] | reduction of MLKL phosphorylation versus TNF-alpha + z-VAD-fmk induced cells ([2]; E4 10^-7 M for 1 hr) | reduction of MLKL phosphorylation versus TNF-alpha + z-VAD-fmk induced cells [2, 3] | reduction of MLKL phosphorylation versus TNF-alpha + z-VAD-fmk induced cells [1, 4] | reduction of MLKL phosphorylation versus TNF-alpha + z-VAD-fmk induced cells [1, 5] | reduction of MLKL phosphorylation versus TNF-alpha + z-VAD-fmk induced cells [2, 4] | reduction of MLKL phosphorylation versus TNF-alpha + z-VAD-fmk induced cells [2, 5]
1 | C[C@]12CC[C@@H]3c4ccc(O)cc4CC[C@H]3[C@@H]1[C@@H](O)[C@@H](O)[C@@H]2O [Estetrol] | decrease of phosphorylation of MLKL | statistically relevant (**p<0.01) | decrease of phosphorylation of MLKL | statistically relevant (**p<0.01) |  |  |  | 
2 | CN1C(=O)C(Cc2c[nH]c3ccccc23)NC1=S (centres unmarked) [Nec-1, Necrostatin-1] |  |  |  |  | statistically Non-Significant (NS) | decrease of phosphorylation of MLKL | statistically significant (*p<0.05); also recorded: statistically relevant (*p<0.05) | decrease of phosphorylation of MLKL
